Test results published in article PMC3914206.

Tests used:
Type in all cases: binding
[1] = biological target: T1, panel of 442 kinases (Homo sapiens, UniProt O94804); details: Compound Concentration 10 µM
T1 construct: purchased KINOMEscan
Text: (§1) We assessed the selectivity of members of this scaffold using the KINOMEscan methodology across a near comprehensive panel of 442 kinases [[18,27]].

[2] = biological target: T2, panel of 442 kinases (Homo sapiens, UniProt Q07912); details: kinase TNK2; compound concentration 10 µM
T2 construct: purchased KINOMEscan
Text: as §1

[3] = biological target: T3, panel of 442 kinases (Homo sapiens, UniProt Q92630); details: Compound Concentration 10 µM
T3 construct: purchased KINOMEscan
T3 sequence (Q92630 1-601): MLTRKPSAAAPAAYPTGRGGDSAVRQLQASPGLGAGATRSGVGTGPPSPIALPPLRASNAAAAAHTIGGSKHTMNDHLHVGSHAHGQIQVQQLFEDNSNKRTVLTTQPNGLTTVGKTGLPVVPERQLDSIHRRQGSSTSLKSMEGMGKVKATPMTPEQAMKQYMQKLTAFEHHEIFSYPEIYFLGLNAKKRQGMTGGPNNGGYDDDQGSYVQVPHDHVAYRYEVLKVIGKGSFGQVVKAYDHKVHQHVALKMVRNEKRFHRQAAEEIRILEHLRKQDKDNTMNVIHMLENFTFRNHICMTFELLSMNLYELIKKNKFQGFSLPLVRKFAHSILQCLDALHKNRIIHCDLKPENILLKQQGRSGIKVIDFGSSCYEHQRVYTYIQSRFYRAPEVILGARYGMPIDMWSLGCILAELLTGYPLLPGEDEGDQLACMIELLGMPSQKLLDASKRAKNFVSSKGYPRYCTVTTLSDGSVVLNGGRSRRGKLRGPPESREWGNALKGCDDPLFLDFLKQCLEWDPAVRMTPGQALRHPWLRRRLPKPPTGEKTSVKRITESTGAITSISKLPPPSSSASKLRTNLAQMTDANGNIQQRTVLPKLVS
Text: as §1

T2 sequence (Q07912 whole entry): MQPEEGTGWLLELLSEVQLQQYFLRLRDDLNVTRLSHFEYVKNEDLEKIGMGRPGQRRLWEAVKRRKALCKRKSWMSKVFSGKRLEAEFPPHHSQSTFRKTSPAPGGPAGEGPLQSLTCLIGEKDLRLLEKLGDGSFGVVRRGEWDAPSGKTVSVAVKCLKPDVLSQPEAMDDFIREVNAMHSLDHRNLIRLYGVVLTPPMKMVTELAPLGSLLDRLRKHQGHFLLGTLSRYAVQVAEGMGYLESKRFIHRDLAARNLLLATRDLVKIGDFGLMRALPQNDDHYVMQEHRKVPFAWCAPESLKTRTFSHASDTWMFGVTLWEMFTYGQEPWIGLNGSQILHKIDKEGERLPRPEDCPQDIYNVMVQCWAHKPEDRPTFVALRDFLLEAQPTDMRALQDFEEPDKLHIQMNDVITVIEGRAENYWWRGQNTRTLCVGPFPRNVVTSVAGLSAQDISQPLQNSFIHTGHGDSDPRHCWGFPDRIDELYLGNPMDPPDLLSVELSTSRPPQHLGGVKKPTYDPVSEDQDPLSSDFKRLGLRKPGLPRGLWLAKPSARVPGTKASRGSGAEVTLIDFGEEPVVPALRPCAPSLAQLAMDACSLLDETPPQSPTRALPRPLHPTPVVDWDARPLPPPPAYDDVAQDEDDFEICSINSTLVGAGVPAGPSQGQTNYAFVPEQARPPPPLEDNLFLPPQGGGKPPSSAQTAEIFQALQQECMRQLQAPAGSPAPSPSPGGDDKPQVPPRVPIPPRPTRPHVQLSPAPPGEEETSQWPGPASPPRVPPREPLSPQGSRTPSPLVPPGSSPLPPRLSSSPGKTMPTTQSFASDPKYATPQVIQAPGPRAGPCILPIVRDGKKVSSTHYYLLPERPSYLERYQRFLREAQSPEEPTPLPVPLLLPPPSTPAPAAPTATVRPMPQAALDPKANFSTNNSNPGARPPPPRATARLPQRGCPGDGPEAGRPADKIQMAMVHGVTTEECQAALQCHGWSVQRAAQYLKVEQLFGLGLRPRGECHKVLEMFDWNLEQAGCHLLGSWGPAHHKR
T1 sequence (O94804 whole entry): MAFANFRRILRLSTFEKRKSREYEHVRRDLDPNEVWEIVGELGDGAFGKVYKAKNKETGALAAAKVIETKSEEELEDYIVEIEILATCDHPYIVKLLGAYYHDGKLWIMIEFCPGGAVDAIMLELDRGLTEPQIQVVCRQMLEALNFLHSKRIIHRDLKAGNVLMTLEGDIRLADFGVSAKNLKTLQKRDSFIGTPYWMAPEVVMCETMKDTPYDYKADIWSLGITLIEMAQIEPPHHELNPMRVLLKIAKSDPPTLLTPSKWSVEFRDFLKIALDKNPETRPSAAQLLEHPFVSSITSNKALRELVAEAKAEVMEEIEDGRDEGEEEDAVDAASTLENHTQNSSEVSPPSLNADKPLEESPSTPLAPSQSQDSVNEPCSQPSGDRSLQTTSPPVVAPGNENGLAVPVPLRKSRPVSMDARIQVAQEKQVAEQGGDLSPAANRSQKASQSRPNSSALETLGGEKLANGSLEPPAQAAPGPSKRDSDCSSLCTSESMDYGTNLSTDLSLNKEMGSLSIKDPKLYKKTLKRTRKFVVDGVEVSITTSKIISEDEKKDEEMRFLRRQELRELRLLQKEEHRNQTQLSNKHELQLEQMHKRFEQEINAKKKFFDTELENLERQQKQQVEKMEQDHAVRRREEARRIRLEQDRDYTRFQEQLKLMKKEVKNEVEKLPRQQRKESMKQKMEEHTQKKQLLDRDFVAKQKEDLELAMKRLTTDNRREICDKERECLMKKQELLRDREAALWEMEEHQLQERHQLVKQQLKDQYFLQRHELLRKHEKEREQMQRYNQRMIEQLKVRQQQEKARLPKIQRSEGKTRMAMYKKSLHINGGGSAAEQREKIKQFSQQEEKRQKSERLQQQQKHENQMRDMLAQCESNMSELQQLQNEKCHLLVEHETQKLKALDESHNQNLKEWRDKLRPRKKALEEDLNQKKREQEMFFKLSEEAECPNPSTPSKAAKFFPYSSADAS

Structure (SMILES) | KINOMEscan: LOK [1] | % Ctrl, TNK2 [2] | KINOMEscan: DYRK2 [3]
COc1cc(C(=O)N2CCC(N3CCN(C)CC3)CC2)ccc1Nc1ncc2c(n1)N(C)c1ccccc1C(=O)N2C [15 (LRRK2-IN-1)] | 100 | 18 % Ctrl | 76
CCOc1cc(C(=O)N2CCC(N3CCN(C)CC3)CC2)ccc1Nc1ncc2c(n1)N(C1CCCC1)c1ccccc1C(=O)N2C [Compound 26] | 100 | 80 % Ctrl | 100
COc1cc(C(=O)N2CCC(N3CCN(C)CC3)CC2)ccc1Nc1ncc2c(n1)N1CCc3cccc(c31)C(=O)N2C [Compound 24] | 70 | 43 % Ctrl | 82
COc1cc(C(=O)N2CCC(N3CCN(C)CC3)CC2)ccc1Nc1ncc2c(n1)N(C1CCCC1)c1ccccc1C(=O)N2C [Compound 25, 11-cyclopentyl-2-((2-methoxy-4-(4-(4-methylpiperazin-1-yl)piperidine-1-carbonyl)phenyl)amino)-5-methyl-5H-benzo[e]pyrimido[5,4-b][1,4]diazepin-6(11H)-one] | 100 | 35 % Ctrl | 100
